Source: patent US20080207452A1, “Ionic liquids derived from herbicidal carboxylic acids and certain trialkylamines or heteroarylamines” (Dow AgroSciences LLC, priority 2007, published 2008)

Assays:
Format in all cases: in vivo
[1] = system: Broadleaf Dock Rumex obtusifolia; assay: Post-emergence greenhouse herbicide evaluation, broadleaf dock; settings: 560 g ae/ha, 14 days after application, visual injury 0-100% vs untreated
Description: (§1) Post-Emergence Application Methods for Herbicide Evaluations.
(§2) A peat based potting soil, Metro-mix 360, was used as the soil media for this test. Metro-mix is a growing medium consisting of 35 to 45% specially processed Coconut Coir Pith, 10 to 20% horticultural grade vermiculite, 15 to 25% processed Ash Bark, 20 to 30% choice Canadian Sphagnum Peat Moss and proprietary nutrients and other ingredients. Several seeds of each species were planted in 10 cm square pots and top watered twice daily. Plant material was propagated in the greenhouse at a constant temperature of 26 to 28° C. and 50 to 60% relative humidity. Natural light was supplemented with 1000-watt metal halide overhead lamps with an average illumination of 500 μE m^−2 s^−1 photosynthetic active radiation (PAR). Day length was 16 hours. Plant material was top-watered prior to treatment and sub-irrigated after treatment. Treatments were applied with a tracksprayer manufactured by Allen Machine Works. The sprayer utilized an 8003E spray nozzle, spray pressure of 262 kPa pressure and speed of 2.8 mph (4.5 km/h) to deliver 187 L/Ha. The nozzle height was 46 cm above the plant canopy. The growth stage of the various weed species ranged from 2 to 4 leaf. Treatments were replicated 3 times. Plants were returned to the greenhouse after treatment and sub-watered throughout the duration of the experiment. Plant material was fertilized twice weekly with Hoagland's fertilizer solution. Percent visual injury assessments were made on a scale of 0 to 100% as compared to the untreated control plants (where 0 is equal to no injury and 100 is equal to complete death of the plant).

Kochia Kochia scoparia = assay: Post-emergence greenhouse herbicide evaluation, kochia; settings: 560 g ae/ha, 14 days after application, visual injury 0-100% vs untreated
Description: as §1, §2

[2] = system: grapes (Vitis labrusca L.); assay: Volatility evaluation: injury to grapes from vapor exposure to treated wheat; settings: wheat sprayed at 11200 g ae/ha, 24 hour vapor exposure at 40° C., evaluated 7 days after exposure
Description: Methods for Evaluating the Volatility of 2,4-D Standards and Ionic Liquids of 2,4-D.
Four pots of wheat (Triticum aestivum L.) grown in 4 inch square pots were sprayed at 11200 g ae/ha with each of the different forms of 2,4-D. Treatments were applied with a tracksprayer manufactured by Allen Machine Works. The sprayer utilized an 8002E spray nozzle, spray pressure of 262 kPa pressure and speed of 1.5 mph (2.4 km/h) to deliver 187 L/Ha. The nozzle height was 46 cm above the plant canopy. The growth stage of the wheat was 1 to 2 leaf. The wheat plants were allowed to thoroughly dry to ensure that none of the spray solution was present when they were moved into a clean pot flat. A known sensitive species, grapes (Vitis labrusca L.) were placed at the opposite end of the flat. All of the pots were covered with a humidome with small ½ inch (1.27 cm) diameter holes cut into the end where the wheat was placed and a small box fan powered with a battery in the other end to pull air across the treated wheat plants and over the top of grapes. Plants were placed into a growth chamber with the temperature set at 40° C. with a 14 hour day and a 10 hour night cycle. A 24 hour exposure period was used after which the sensitive plants were then removed and placed in the greenhouse and evaluated for injury from vapor exposure to the treatments.

[3] = system: Barnyardgrass Echinochloa crus-galli; assay: Post-emergence greenhouse herbicide evaluation, barnyardgrass; settings: 240 g ae/ha, 14 days after application, visual injury 0-100% vs untreated
Description: as §1, §2

[4] = system: Large Crabgrass Digitaria Sanguinalis; assay: Post-emergence greenhouse herbicide evaluation, large crabgrass; settings: 240 g ae/ha, 14 days after application, visual injury 0-100% vs untreated
Description: as §1, §2

SMILES | % Control Broadleaf Dock Rumex obtusifolia [1] [%] | % Control Kochia Kochia scoparia (Kochia Kochia scoparia) [%] | % Injury to grapes from vapor exposure [2] [%] | % Control Barnyardgrass Echinochloa crus-galli [3] [%] | % Control Large Crabgrass Digitaria Sanguinalis [4] [%]
CCCCOCCOC(=O)COc1ccc(Cl)cc1Cl [2,4-D butoxyethylester (BEE), 2,4-D butoxyethylester, reference compound] | 96 | 95 | 100 | – | –
CNC.O=C(O)COc1ccc(Cl)cc1Cl [2,4-D dimethylamine (DMA), 2,4-D dimethylamine, reference compound] | 40 | 76 | 78 | – | –
CCCCCCCCn1ccnc1.O=C(O)COc1ccc(Cl)cc1Cl [Compound 1c] | 82 | 97 | – | – | –
CCCCCCCCn1ccnc1.O=C(O)COc1nc(Cl)c(Cl)cc1Cl [Compound 2c] | 52 | 92 | – | – | –
CCCCCCN(C)C.O=C(O)COc1ccc(Cl)cc1Cl [Compound 3b] | 73 | 97 | – | – | –
CCCCCCCCN(C)C.O=C(O)COc1ccc(Cl)cc1Cl [Compound 3c] | – | – | 0 | – | –
CCCCCCCCCCCCCCCCN(C)C.O=C(O)COc1ccc(Cl)cc1Cl [Compound 3g] | – | – | 0 | – | –
CCCCCCN(C)C.O=C(O)COc1nc(Cl)c(Cl)cc1Cl [Compound 4b] | 49 | 96 | – | – | –
CCCCCCCCN(C)C.C[C@@H](Oc1ccc(Oc2ccc(C#N)cc2F)cc1)C(=O)O [Compound 4i] | – | – | – | 100 | 78
CC(Oc1ccc(Oc2ccc(C#N)cc2F)cc1)C(=O)O.CCCCCCCCCCCCCCN(C)C (stereo not shown) [Compound 4j] | – | – | – | 100 | 82
CN(C)Cc1ccccc1.C[C@@H](Oc1ccc(Oc2ccc(C#N)cc2F)cc1)C(=O)O [Compound 4k] | – | – | – | 100 | 85
CCCCOCCOC(=O)COc1nc(Cl)c(Cl)cc1Cl [Triclopyr butoxyethylester (BEE), Triclopyr butoxyethylester, reference compound] | 79 | 95 | – | – | –
CCN(CC)CC.O=C(O)COc1nc(Cl)c(Cl)cc1Cl [Triclopyr triethylamine (TEA), Triclopyr triethylamine, reference compound] | 40 | 93 | – | – | –
CCCCOC(=O)[C@H](C)Oc1ccc(Oc2ccc(C#N)cc2F)cc1 [cyhalofop Bu-ester, reference compound] | – | – | – | 100 | 92
